What all share (assay type): cell-based
For one test, the system named is HT-29. The experiment in a line: SRB cell proliferation assay, HT-29. Particulars: Homo sapiens, HT-29; 72 hours, SRB; read-out: CELLULAR IC50 HT-29. Here is the method: (§1) Cells were exposed to the test compound racemate at various concentrations appropriate to determine an IC50 for 72 hours. Cell proliferation was measured using the SRB assay according to Shekan et al (J Natl Cancer Inst (1990) 82, 1107-112) in order to estimate the IC50 values shown in Table 3. Briefly, cells were plated in 96 well dishes 24 hours prior to compound addition at the densities specified in Table 5.1. The assay was terminated with the addition of cold TCA to a final concentration of 10% after growth medium has been removed and the plates were incubated over night at 4°C. The plates were then washed 5 times with water and 100µl of a Sulforhodamine B solution ([…]) was added to each well. The plates were then incubated for 10 minutes at room temperature before removal of unbound dye by washing with 1% acetic acid. The bound dye was solubilised with 10 mM Trizma base and the absorbance read at OD520.
(§2) Inhibitory activity of the compound (IC) was calculated as % inhibition of cell proliferation compared to cells treated with the solvent (DMSO).
(§3) Table 8.1: 18-Cell Line Panel

In another test the test system is IMR-90. The test is described as follows: SRB cell proliferation assay, IMR-90. Particulars: Homo sapiens, IMR-90; 72 hours, SRB; read-out: CELLULAR IC50 IMR-90. On the procedure: as §1, §2, §3
The next test concerns the target Plk1 (Homo sapiens, UniProt P53350). The experiment in a line: Cellular Plk1 kinase activity: nucleophosmin (B23) Ser4 phosphorylation in HCT116 cells (MSD electrochemiluminescence). Particulars: nocodazole-treated, 4 hours compound exposure, read-out: Biochemical IC50 Nucleophosmin assay. Here is the method:
Cellular Plk1 kinase activity was measured by quantification of nucleophosmin (B23) Ser4 phosphorylation in a cancer cell line. Nucleophosmin (B23) Ser4 is phosphorylated by Plkl, and this phosphorylation can be specifically detected by cross-reactivity of a phospho-Mekl/2 antibody that is able to recognizes a mitotic-specific phosphorylated form of nucleophosmin (B23) in a nocodazole dependent way (Zhang, H., Shi, X., Paddon, H., Hampong, M., Dai, W., and Pelech, S. (2004) B23/Nuleophosmin Serin 4 Phosphorylation Mediates Mitotic Functions of Polo-like Kinase 1. J. Biol. Chem., 279(34), 35726-35734).
Briefly, HCT116 cells (ATCC, Order No. CCL-247) were plated in 96 well dishes 24 hours prior to nocodazole treatment at 25 000 cells per well. Cells were then treated with 100 ng/ml nocodazole (Sigma-Aldrich, # M1404). […]
The cell lysates were thawed at room temperature and 40 µl were incubated on 96-well MULTI-ARRAY High Bind plates (L11XB; MSD) for 1.5 - 2 hours at room temperature. […] Then, 150 µl of 1x Read Buffer T (R92TC; MSD) were carefully added to each well and the plates were quantitatively detected for each well with a SECTOR™ Imager 6000 (MSD).
Inhibitory activity of the compound (IC) was calculated as % inhibition of nucleophosmin (B23) Ser4 phosphorylation compared to cells […].

A further test relates to HCT 116. The test is described as follows: SRB cell proliferation assay, HCT 116. Particulars: Homo sapiens, HCT-116; 72 hours, SRB; read-out: CELLULAR IC50 HCT 116. Here is the method: as §1, §2, §3

Chain of Plk1 (P53350 whole entry, species assumed): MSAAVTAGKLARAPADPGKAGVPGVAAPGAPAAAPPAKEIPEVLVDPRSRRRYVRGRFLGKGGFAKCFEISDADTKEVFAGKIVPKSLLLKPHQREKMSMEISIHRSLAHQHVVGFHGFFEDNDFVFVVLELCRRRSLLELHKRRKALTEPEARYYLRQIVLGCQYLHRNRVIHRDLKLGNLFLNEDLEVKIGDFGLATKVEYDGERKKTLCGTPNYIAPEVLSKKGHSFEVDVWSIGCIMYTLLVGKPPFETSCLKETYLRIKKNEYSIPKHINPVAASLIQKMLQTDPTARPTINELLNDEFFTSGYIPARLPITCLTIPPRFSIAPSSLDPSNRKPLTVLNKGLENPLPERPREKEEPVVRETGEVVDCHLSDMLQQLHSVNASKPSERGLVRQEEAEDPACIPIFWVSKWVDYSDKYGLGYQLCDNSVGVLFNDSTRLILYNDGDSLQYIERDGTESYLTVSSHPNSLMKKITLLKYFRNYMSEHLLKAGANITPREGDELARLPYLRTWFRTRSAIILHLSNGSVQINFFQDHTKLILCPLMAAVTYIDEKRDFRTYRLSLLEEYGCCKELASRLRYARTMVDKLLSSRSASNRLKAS

For `CCC1C(=O)N(C)c2cnc(Nc3ccc(C(=O)N[C@H]4CC[C@H](N5CCN(CC6CC6)CC5)CC4)cc3OC)nc2N1N(C)C` (mixture of isomers) [racemic mixture containing compound 1 and (S)-enantiomer, N-[trans-4-(4-Cyclopropylmethyl-piperazin-1-yl)-cyclohexyl]-4-(8-dimethylamino-7-ethyl-5-methyl-6-oxo-5,6,7,8-tetrahydro-pteridin-2-ylamino)-3-methoxy-benzamide], the IC50 was below 1 µM in the test with HT-29, above 1 µM with IMR-90, below 0.1 µM on Plk1 and below 1 µM in the test on HCT 116.

For the origin of these results see patent EP2325185A1, “Plk inhibitor” (GPC Biotech AG, priority 2009, dated 2011).
